These results are taken from PubChem BioAssay (NCI).

Some test systems named below: CCRF-CEM leukemia; HCC-2998 colon; HOP-18 NSCLC; HOP-92 NSCLC; K-562 leukemia; OVCAR-8 ovarian; P388/ADR leukemia; SK-OV-3 ovarian; U251 CNS; CAKI-1 renal; MDA-N; T-47D breast.
What all share (assay): NCI tumour cell line growth inhibition, 48 h

Values joined by “and” are separate entries in the source; they are usually repeats but may differ in a detail not shown here. Identical values can stand only once.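 Five compound concentrations were applied to cells in 96-well plates for 48 hours; endpoints were derived by simple linear interpolation of the resulting dose-response curve. Abbreviation: GI50, concentration required for 50% inhibition of growth. TGI: total growth inhibition.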 Starred links: 1 amine or outer side, 2 acyl side, 3 side chain; linkers in the order of their positions; H or OH if unused. Positions of bridges follow the written chain, without caps; N, C: chain ends. Non-standard residues stand in square brackets, D forms with d. Residues, ends and D or L forms follow the SMILES beside them. Chains are numbered I, II in the order given. Actinocin(9to1) = Cc1c2oc3c(C)ccc(C(=O)[*:1])c3nc-2c(C(=O)[*:2])c(N)c1=O; NMeY = CN[CH](Cc1ccc(O)cc1)C(=O)O; Sar = CNCC(=O)O Bounds are passed on as bounds.

Take `CC(C)Cc1ccc(C(C)C(=O)N2CCN(/C=C/c3ccccc3)CC2)cc1` (configuration not stated): the TGI in the test with CCRF-CEM leukemia came out at 37.1 µM; in the test on HCC-2998 colon it was 31.8 µM; in the test on HOP-18 NSCLC, 35.9 µM; in the test with HOP-92 NSCLC, 26.1 µM; in the test with K-562 leukemia, 29.3 µM; with OVCAR-8 ovarian it was 29.1 µM. The TGI amounted to 42.1 µM in the test with P388/ADR leukemia, 30.3 µM with SK-OV-3 ovarian and 25.5 µM with U251 CNS.
For `COc1cc2c(cc1OC)C(CC1=C(c3ccccc3)CN3CCc4cc(OC)c(OC)cc4C3C1)NCC2` (configuration not stated), the TGI was 44.6 µM in the test on CAKI-1 renal; 37.6 µM in the test on CCRF-CEM leukemia; 22.7 µM in the test with HCC-2998 colon; 30.9 µM with HOP-18 NSCLC; 30.1 µM in the test with K-562 leukemia; 36.8 µM in the test on OVCAR-8 ovarian. Besides, the results for the TGI with SK-OV-3 ovarian and with U251 CNS were 43.9 µM and 29.8 µM, respectively.
For `CCCC(=O)OCC1OC(n2ccc(N)nc2=O)C(OC(=O)CCC)C1OC(=O)CCC` (configuration not stated), the TGI in the test with CAKI-1 renal, in the test with CCRF-CEM leukemia, in the test on HCC-2998 colon, with HOP-18 NSCLC, with HOP-92 NSCLC and with K-562 leukemia was over 100 µM throughout. In addition, the TGI in the test with OVCAR-8 ovarian, in the test with P388/ADR leukemia, in the test on SK-OV-3 ovarian and in the test with U251 CNS was over 100 µM each time.
As to `CC(=O)Nc1sc(Br)cc1S(=O)(=O)c1ccc(Cl)cc1`, the TGI with CAKI-1 renal is over 100 µM; in the test with CCRF-CEM leukemia it was over 100 µM; with HCC-2998 colon it was 44.2 µM; with HOP-92 NSCLC, 59.5 µM; in the test with K-562 leukemia, 78.3 µM; with MDA-N, over 100 µM. Also, the TGI in the test on OVCAR-8 ovarian is 68.7 µM; with SK-OV-3 ovarian, over 100 µM; with T-47D breast, 68.5 µM; in the test on U251 CNS, over 100 µM.
On to `CN1C(=O)c2ccccc2OC12C=Cc1c(ccc3ccccc13)O2` (configuration not stated), for which the TGI with CAKI-1 renal is 33.3 µM; in the test on CCRF-CEM leukemia, over 29.6 µM; in the test with HCC-2998 colon, 16 µM; with HOP-92 NSCLC, 8.47 µM; in the test with K-562 leukemia, over 31.5 µM; in the test on MDA-N it was 10.4 µM. Besides, the TGI was 17.6 µM with OVCAR-8 ovarian, 27.4 µM with SK-OV-3 ovarian, over 25.7 µM in the test with T-47D breast and over 34 µM in the test with U251 CNS.
For `CC1(C)C(C#N)C1C1=C(N2CCOCC2)[C@]2(C)C(OC(=O)c3ccccc3)CC[C@@H]2C1` (some centres not stated), the TGI with CAKI-1 renal, in the test on CCRF-CEM leukemia, in the test with HCC-2998 colon, in the test with HOP-92 NSCLC, in the test with K-562 leukemia and in the test with MDA-N was over 100 µM each time. Further, the TGI in the test with OVCAR-8 ovarian, in the test on SK-OV-3 ovarian, with T-47D breast and in the test with U251 CNS was over 100 µM throughout.
Turning to `Cc1c2oc3c(C)ccc(C(=O)NC4C(=O)NC(C(C)C)C(=O)N5CCCC5C(=O)N(C)CC(=O)N(C)C(Cc5ccc(O)cc5)C(=O)OC4C)c3nc-2c(C(=O)NC2C(=O)NC(C(C)C)C(=O)N3CCCC3C(=O)N(C)CC(=O)N(C)C(Cc3ccc(O)cc3)C(=O)OC2C)c(N)c1=O` (configuration not stated) (I: TVP[Sar][NMeY] / II: TVP[Sar][NMeY]; ester I:1-I:C, II:1-II:C; linker I:N-II:N via Actinocin(9to1); configuration not given here), the TGI with CAKI-1 renal was over 1 µM; in the test on HCC-2998 colon, 0.277 µM and 0.169 µM; in the test with HOP-92 NSCLC it was over 1 µM; in the test on K-562 leukemia, over 1 µM; in the test with MDA-N it was > 0.48 µM and 0.259 µM; in the test on OVCAR-8 ovarian, 0.612 µM. Besides, the TGI in the test on SK-OV-3 ovarian is over 1 µM; with T-47D breast, over 0.334 µM; in the test with U251 CNS, over 1 µM. The GI50 is 0.00256 µM and 0.00073 µM in the test with CCRF-CEM leukemia; 0.104 µM and 0.0112 µM with HCC-2998 colon; 0.00338 µM and 0.000595 µM in the test with K-562 leukemia; 0.0273 µM and 0.00511 µM in the test with MDA-N; 0.16 µM and 0.075 µM with SK-OV-3 ovarian; 0.0103 µM and 0.00457 µM in the test on T-47D breast.
For the compound `COc1ccc(/C=C2\CCNC2=O)cc1`, the TGI in the test on CAKI-1 renal, in the test with CCRF-CEM leukemia, in the test on HCC-2998 colon, in the test with HOP-18 NSCLC, in the test on HOP-92 NSCLC and in the test on K-562 leukemia was over 100 µM throughout. Also, the TGI with OVCAR-8 ovarian, in the test on P388/ADR leukemia, in the test with SK-OV-3 ovarian and in the test on U251 CNS was over 100 µM each time.
